PubChem BioAssay AID2305 (GlaxoSmithKline (GSK), 2010)

System: P. falciparum 3D7 growth, pLDH absorbance
Assay: P. falciparum 3D7 growth inhibition, dose response, strain 3D7 (AID 2305)

SMILES	IC50 [nM]
CCOc1ccc(Br)cc1/C=C/C(=O)Nc1ccc2c(c1)[C@@H]1CC[C@H]2N1C	1050
CC(C)(C)c1cc(C(=O)Nc2cccnc2)cc(C(=O)Nc2cccnc2)c1	760
O=S(=O)(Nc1ccc(CCN2CCC(N3CCCCC3)CC2)cc1)c1ccc(Cl)cc1	1090
COc1ccc2nccc([C@@H](O)CN3CCC(NC(=O)c4cc5cccnc5[nH]4)CC3)c2c1	890
Oc1cccc(Nc2ccnc3cc(-c4cc5ccccc5o4)ccc23)c1	760
CN1CCN(c2nsc3ccc(-c4ccc(NC(=O)Nc5ccccc5)cc4)cc23)CC1	180
COc1cccc(C2CCN(CCN3CCC(NC(=O)c4ccc(-c5ccc(Cl)cc5)cc4)CC3)CC2)c1	1090
CCC(C)(C)C1CCc2[nH]c3ccccc3c(=O)c2C1 (stereo not given)	380
Cc1cc(NC(=O)NCCN2CCC(NC(=O)c3ccc(C(F)(F)F)cc3)CC2)c2ccccc2n1	410
Cc1cc2ccc(CNCCc3ccccc3Br)cc2nc1N	510
COc1cc2c(cc1OC)CN(c1cc(N)c3cc(OC)c(OC)cc3n1)CC2	550
Cc1ccc(F)c(OCC2CCCN(c3ccc(C(=O)NC4CC4)cn3)C2)c1 (stereo not given)	770
CN1CCC(C(=O)Nc2ccc(-c3cccc(-c4nc5ccc(C(F)(F)F)cc5[nH]4)c3)cc2)CC1	580
O=C(Nc1ccc(-c2ccccc2)cc1)Nc1cccc(OCCN2CCCC2)c1	930
O=C(NC1CCC(N2CCC3(CC2)C(=O)NCN3c2ccccc2)CC1)c1cc2ccccc2[nH]1 (stereo not given)	680
O=C(/C=C/c1ccc(Cl)c(Cl)c1)NCCCCCN1CCC(NC(=O)Nc2cccc(F)c2)CC1	770
O=c1cc(NCCCNCc2cccc(SC(F)(F)F)c2)[nH]c2ccccc12	720
O=C(/C=C/c1ccc2ccccc2c1)NC1CCC(CN2CCC(c3c[nH]c4ccccc34)CC2)CC1 (stereo not given)	730
CC(C)CNCc1ccc(OCc2cccc(COc3ccc(CNCC(C)C)cc3I)c2)c(I)c1	770
FC(F)(F)c1ccc2nccc(NN=Cc3ccccc3)c2c1	1170

SMILES	IC50 [nM]
CC(C)Oc1ccc2ccccc2c1CNCCCCCCNCc1c(OC(C)C)ccc2ccccc12	610
COc1ccc2ncc(F)c(CCN3CCC(NCc4cc5c(cn4)OCCS5)CC3)c2c1	780
Cc1cc(-c2cccc3c(C(=O)N4CCc5cc6nccc(N7CCCN(C)CC7)c6cc54)cccc23)cc(C)n1	440
CN(C)CCC(=O)c1ccccc1	330
Cc1cc(NC(=O)Nc2ccc(N(C)C)cc2)c2cc(Cl)ccc2n1	860
CC(Sc1n[nH]c(-c2cccs2)n1)C(=O)c1c[nH]c2ccccc12 (stereo not given)	1800
CCCCN(CCCC)Cc1cc2ccccc2cc1O	350
COc1ccc(-c2ccc(NC(=O)c3cccc(Cl)c3)cc2)cc1CN(C)CCN(C)C	780
CC(C)CCN=C(N)Nc1ccc(OCCCOc2ccc(NC(N)=NCCC(C)C)cc2)cc1	200
Cc1cc(NCCc2ccc(O)cc2)nc(NCC(c2ccccc2)c2ccccc2)n1	320
COc1ccc(N(c2nc(-c3cc(Cl)ccc3Cl)cs2)C2CCNCC2)cc1	1090
FC(F)(F)c1ccc2nc(-c3ccc(-c4ccc(CN5CCN(c6ccncc6)CC5)cc4)cc3)[nH]c2c1	60
CCN1CCN(c2cc(C)c3cc(NC(=O)c4cccc(OC)c4)ccc3n2)CC1	800
COc1ccc(C(=O)[C@H]2C[C@@H]2CN2CC=C(c3c[nH]c4ccc(OC)nc34)CC2)cc1	480
Cn1c(-c2ccccc2)cc2c3c(N)nc(N)nc3ccc21	890
Cc1cc(N(C)C)nc(Nc2ccc(NC(=O)COc3ccccc3)cc2)n1	1760
CC(C)CNCc1cccc(-c2cccc(CN(CCCN3CCN(C)CC3)C(=O)Nc3ccccc3)c2)c1	1150
CN1CCN(c2cc(NC(=O)c3ccc(-c4ccc(C#N)cc4)cc3)ccc2Cl)CC1	460
CN(C)CCNCc1ccc(-c2ccc3c(Nc4ccc(Oc5ccccc5)cc4)ccnc3c2)o1	280
O=[N+]([O-])c1cccc(NC(=S)N2CCCN(Cc3ccc(C(F)(F)F)cc3)CC2)c1	1200
